We go through 8 compounds from patent US20100292185A1, “BETA-LACTAMASE INHIBITORS” (priority 2009, published 2010).

One assay concerns the target T1, OXA-23 β-lactamase (Acinetobacter baumannii, UniProt Q9L4P2).
T1 construct: crude β-lactamase extracts were prepared from 20 ml overnight cultures; endogenous in cells; host or cells: Acinetobacter baumannii cells containing OXA-23 (crude freeze-thaw extract)
The assay is described as follows: β-lactamase enzyme inhibition assay (nitrocefin substrate), OXA-23 crude extract. The class given is biochemical. The following applies: nitrocefin 100 μM, 37° C., PBS pH 7.0; read-out: OXA-23 IC50. The essentials:
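Crude enzyme came from freeze-thaw extracts of mid-log OXA-23-carrying A. baumannii grown in MH-II broth at 37° C. Inhibitors (100–0.005 μM in PBS pH 7.0) were preincubated with the enzyme for 10 min at 37° C, then 100 μM nitrocefin (final) was added and read kinetically at 486 nm for 10 min. IC50 was taken from initial hydrolysis rates relative to uninhibited controls.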

For assay [1], the system named is K. pneumoniae expressing the Class A carbapenemase KPC-2. The assay is described as follows: microbe, parasite or virus in culture. In kind it is cell-based. The following applies: in presence of Ceftazidime 8 μg/ml (Examples 1-56). The essentials:
(§1)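 MIC read by eye after 16–20 h at 37° C, with CLSI-standard inocula of strains grown 3–5 h in CAMHB containing 50 μg/mL ampicillin. Compounds tested in final 2-fold dilutions from 8 to 0.015 μg/mL together with a β-lactam antibiotic.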

The test system of assay [2] is E. cloacae expressing the Class C P99+. The assay is described as follows: In vitro antibacterial assay of β-lactamase inhibition (broth microdilution MIC), E. cloacae P99+. In kind it is cell-based. The following applies: in presence of Ceftazidime 8 μg/ml (Examples 1-56). The essentials:
as §1

The target of assay [3] is T2, VIM-2 metallo β-lactamase (Pseudomonas aeruginosa, UniProt Q9K2N0).
T2 construct: made in house
The assay is described as follows: β-lactamase enzyme inhibition assay (nitrocefin substrate), VIM-2. In kind it is biochemical. The settings on record: nitrocefin 100 μM, 37° C., PBS pH 7.0; read-out: VIM-2 IC50. The essentials:
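VIM-2 was expressed untagged in E. coli BL21(DE3) and purified by two Q sepharose anion-exchange runs plus gel filtration to >90% purity. Compounds at 100–0.005 μM in PBS pH 7.0 were preincubated with enzyme for 10 min at 37° C, then nitrocefin was added at 100 μM final. Hydrolysis was followed kinetically at 486 nm for 10 min; IC50 is the concentration halving the initial rate relative to no-inhibitor wells.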

For a further assay, the target named is T3, KPC-2 β-lactamase (Klebsiella pneumoniae, UniProt Q9F663).
T3 construct: expressed as native untagged proteins; made in house; host or cells: E. coli BL21(DE3)
The assay is described as follows: β-lactamase enzyme inhibition assay (nitrocefin substrate), KPC-2. The class given is biochemical. The essentials:
(§2)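 Native untagged enzymes were expressed in E. coli BL21(DE3) and purified by cation exchange and gel filtration. Compounds (100–0.005 µM, PBS pH 7.0) were preincubated with enzyme for 10 min at 37 °C, then 100 µM nitrocefin was added and read kinetically at 486 nm for 10 min. IC50 is the concentration giving 50% reduction of initial hydrolysis rate versus uninhibited controls.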

Another assay addresses T4, SHV-5 β-lactamase (Klebsiella pneumoniae, UniProt P0A3M1).
T4 construct: expressed as native untagged proteins; made in house; host or cells: E. coli BL21(DE3)
The assay is described as follows: β-lactamase enzyme inhibition assay (nitrocefin substrate), SHV-5. In kind it is biochemical. The essentials: as §2

Another assay addresses T5, CTX-M15 β-lactamase (Escherichia coli, UniProt Q9EXV5).
T5 construct: expressed as native untagged proteins; made in house; host or cells: E. coli BL21(DE3)
The assay is described as follows: β-lactamase enzyme inhibition assay (nitrocefin substrate), CTXM-15. In kind it is biochemical. The essentials: as §2

Assay [4] has as its system P. aeruginosa expressing the Class B metallo β-lactamase VIM-2. The assay is described as follows: In vitro antibacterial assay of β-lactamase inhibition (broth microdilution MIC), P. aeruginosa VIM-2. In kind it is cell-based. The following applies: in presence of Ceftazidime 16 μg/mL (Examples 1-56). The essentials: as §1
(In general: In broth dilution the organism is exposed to a series of concentrations in liquid medium.)

In another assay the target is T6, p99 AmpC β-lactamase (Enterobacter cloacae, UniProt P05364).
T6 construct: expressed as native untagged proteins; made in house; host or cells: E. coli BL21(DE3)
The assay is described as follows: β-lactamase enzyme inhibition assay (nitrocefin substrate), P99 AmpC. In kind it is biochemical. The essentials:
as §2

The subject of assay [5] is E. coli expressing the Class A ESBL SHV-5. The assay is described as follows: In vitro antibacterial assay of β-lactamase inhibition (broth microdilution MIC), E. coli SHV-5. In kind it is cell-based. The following applies: in presence of Ceftazidime 8 μg/ml (Examples 1-56). The essentials:
as §1

Assay [6] deals with K. pneumoniae expressing the Class A Extended Spectrum Beta-Lactamase (ESBL) CTX-M-15. The assay is described as follows: In vitro antibacterial assay of β-lactamase inhibition (broth microdilution MIC), K. pneumoniae CTX-M-15. The class given is cell-based. The following applies: in presence of Ceftazidime 8 μg/ml (Examples 1-56). The essentials: as §1
[7] abbreviates: nitrocefin 100 μM, 37° C., PBS pH 7.0, read-out: P99 AmpC IC50.
The mark [8] stands for this setting: nitrocefin 100 μM, 37° C., PBS pH 7.0, read-out: KPC-2 IC50.
Setting [9] is: nitrocefin 100 μM, 37° C., PBS pH 7.0, read-out: SHV-5 IC50.
[10] abbreviates: nitrocefin 100 μM, 37° C., PBS pH 7.0, read-out: CTXM-15 IC50.

Structures can show the parent of a compound that is named as a salt. Where two headings read alike, the source gives them in different places.

T1 sequence (Q9L4P2 18-273): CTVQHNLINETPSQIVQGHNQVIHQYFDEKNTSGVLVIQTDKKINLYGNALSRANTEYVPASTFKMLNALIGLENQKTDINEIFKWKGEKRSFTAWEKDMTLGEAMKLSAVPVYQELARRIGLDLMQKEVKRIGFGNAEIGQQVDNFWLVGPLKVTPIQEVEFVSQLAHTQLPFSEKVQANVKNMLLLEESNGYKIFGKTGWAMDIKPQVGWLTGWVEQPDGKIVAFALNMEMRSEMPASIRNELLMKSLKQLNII
T3 sequence (Q9F663 25-293 limits assumed): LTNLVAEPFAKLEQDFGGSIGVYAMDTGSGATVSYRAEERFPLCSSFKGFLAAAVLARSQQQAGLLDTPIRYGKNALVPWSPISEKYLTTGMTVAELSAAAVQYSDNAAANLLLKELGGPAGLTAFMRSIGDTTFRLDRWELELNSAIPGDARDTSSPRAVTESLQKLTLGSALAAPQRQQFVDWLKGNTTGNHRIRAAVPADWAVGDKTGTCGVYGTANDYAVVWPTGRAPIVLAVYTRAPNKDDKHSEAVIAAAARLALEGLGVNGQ
T4 sequence (P0A3M1 22-286): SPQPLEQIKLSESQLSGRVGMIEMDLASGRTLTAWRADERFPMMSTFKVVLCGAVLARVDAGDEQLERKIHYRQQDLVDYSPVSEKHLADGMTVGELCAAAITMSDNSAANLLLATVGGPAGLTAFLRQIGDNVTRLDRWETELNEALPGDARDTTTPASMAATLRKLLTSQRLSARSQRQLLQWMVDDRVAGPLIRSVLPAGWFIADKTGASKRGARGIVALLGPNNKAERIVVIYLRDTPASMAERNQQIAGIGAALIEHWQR
T6 sequence (P05364 21-381): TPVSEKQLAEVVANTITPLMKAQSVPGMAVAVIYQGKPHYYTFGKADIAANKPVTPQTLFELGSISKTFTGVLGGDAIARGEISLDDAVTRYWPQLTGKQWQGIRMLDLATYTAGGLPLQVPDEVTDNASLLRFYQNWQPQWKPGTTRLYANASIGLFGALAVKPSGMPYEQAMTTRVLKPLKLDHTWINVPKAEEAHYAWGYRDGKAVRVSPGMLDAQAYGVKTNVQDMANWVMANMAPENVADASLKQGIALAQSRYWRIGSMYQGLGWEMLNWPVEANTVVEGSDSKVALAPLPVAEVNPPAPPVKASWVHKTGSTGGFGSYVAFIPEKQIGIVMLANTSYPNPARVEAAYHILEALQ
T5 sequence (Q9EXV5 entry or part of it): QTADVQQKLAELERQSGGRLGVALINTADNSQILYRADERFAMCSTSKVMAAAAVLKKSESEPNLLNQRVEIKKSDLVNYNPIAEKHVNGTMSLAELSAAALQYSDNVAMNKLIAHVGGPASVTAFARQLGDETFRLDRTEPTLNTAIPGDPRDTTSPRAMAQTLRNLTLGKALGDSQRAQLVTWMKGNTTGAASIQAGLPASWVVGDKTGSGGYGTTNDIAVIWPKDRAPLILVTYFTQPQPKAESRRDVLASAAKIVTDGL

One may read the IC50 as the concentration needed to halve the response being measured. As for `Nc1cc(CC(=O)N[C@@H](Cc2cccc(C(=O)O)c2O)B(O)O)ccn1` [Example 45, (2R)-3-{2-[(2-amino-pyridin-4-yl-acetyl)-amino]-2-borono-ethyl}-2-hydroxy-benzoic acid formate], the IC50 on OXA-23 β-lactamase worked out at 113 nM; in assay [3], 811 nM; against KPC-2 β-lactamase, 6 nM; on SHV-5 β-lactamase it was 10 nM; against CTX-M15 β-lactamase, 0.5 nM; on p99 AmpC β-lactamase it was 2 nM. Also, the “MIC of example compound, K. pneumoniae KPC-2” value (“MIC … K. pneumoniae KPC-2” for short) in assay [1] worked out at 0.007 µg/mL. For the same compound, the “MIC of example compound, E. cloacae P99+” value in [2] is 0.06 µg/mL. The “MIC of example compound, P. aeruginosa VIM-2” value (“MIC … P. aeruginosa VIM-2” below) in [4] was more than 8 µg/mL. The “MIC of example compound, E. coli SHV-5” value in assay [5] is 0.03 µg/mL. In addition, in assay [6], the “MIC of example compound, K. pneumoniae CTX-M-15” value (shortened to “MIC … K. pneumoniae CTX-M-15”) came out at 0.03 µg/mL.
On to `Br.CC(C)(O/N=C(\C(=O)N[C@@H](Cc1cccc(C(=O)O)c1O)B(O)O)c1csc(N)n1)C(=O)O` [Example 48, 3-{2(R)-[2-(2-amino-thiazol-4-yl)-2-(1-carboxy-1-methyl-ethoxyimino)-acetylamino]-2-borono-ethyl}-2-hydroxy-benzoic acid hydrobromide], for which the IC50 was 670 nM at OXA-23 β-lactamase; more than 1000 nM in assay [3]; 70 nM on KPC-2 β-lactamase; 4 nM against SHV-5 β-lactamase; 12 nM at CTX-M15 β-lactamase; 10 nM on p99 AmpC β-lactamase (setting [7]). Besides, in assay [1], the “MIC … K. pneumoniae KPC-2” value came to 2 µg/mL. For the same compound, the “MIC of example compound, E. cloacae P99+” value in assay [2] is more than 8 µg/mL. The “MIC … P. aeruginosa VIM-2” value in assay [4] is more than 8 µg/mL. Besides, the “MIC of example compound, E. coli SHV-5” value in assay [5] is more than 8 µg/mL. Also, the “MIC … K. pneumoniae CTX-M-15” value in assay [6] is more than 8 µg/mL.
As for `Cl.Nc1nc(/C(=N/O)C(=O)N[C@@H](Cc2cccc(C(=O)O)c2O)B(O)O)cs1` [Example 49, 3-{2(R)-[2-(2-amino-thiazol-4-yl)-2(Z)-hydroxyimino-acetylamino]-2-borono-ethyl}-2-hydroxy-benzoic acid hydrochloride], the IC50 at OXA-23 β-lactamase came to 17 nM; in [3] it was 590 nM; at KPC-2 β-lactamase, 34 nM; on SHV-5 β-lactamase it was 4 nM; at CTX-M15 β-lactamase it was 11 nM; at p99 AmpC β-lactamase (setting [7]) it was 2 nM. In addition, the “MIC … K. pneumoniae KPC-2” value in assay [1] turned out to be 0.12 µg/mL. Moreover, the “MIC of example compound, E. cloacae P99+” value in [2] is 2 µg/mL. Moreover, in assay [4], the “MIC … P. aeruginosa VIM-2” value is more than 8 µg/mL. For the same compound, the “MIC of example compound, E. coli SHV-5” value in [5] turned out to be 2 µg/mL. In addition, in [6], the “MIC … K. pneumoniae CTX-M-15” value turned out to be 2 µg/mL.
Regarding `C/C(=N/O)C(=O)N[C@@H](Cc1cccc(C(=O)O)c1O)B(O)O` [Example 54, 3-[2(R)-(2-hydroxyimino-propionylamino)-2-borono-ethyl]-2-hydroxy-benzoic acid], the half-maximal inhibitory concentration (IC50) at OXA-23 β-lactamase was 494 nM; in assay [3], more than 1000 nM; against KPC-2 β-lactamase, 10 nM; against SHV-5 β-lactamase, 48 nM; against CTX-M15 β-lactamase, 5 nM; on p99 AmpC β-lactamase (setting [7]) it was 2 nM. Moreover, the “MIC … K. pneumoniae KPC-2” value in assay [1] was 0.03 µg/mL. Further, in [2], the “MIC of example compound, E. cloacae P99+” value was determined as 1 µg/mL. Further, the “MIC … P. aeruginosa VIM-2” value in assay [4] is more than 8 µg/mL. Further, the “MIC of example compound, E. coli SHV-5” value in assay [5] is 2 µg/mL. Further, the “MIC … K. pneumoniae CTX-M-15” value in [6] is 1 µg/mL.
`CC/C(=N/O)C(=O)N[C@@H](Cc1cccc(C(=O)O)c1O)B(O)O` [Example 55, 3-[2(R)-(2-hydroxyimino-butyrylamino)-2-borono-ethyl]-2-hydroxy-benzoic acid]: the IC50 is 67 nM on OXA-23 β-lactamase; more than 1000 nM in assay [3]; 6 nM at KPC-2 β-lactamase; 120 nM against SHV-5 β-lactamase; 1 nM against CTX-M15 β-lactamase; 0.5 nM at p99 AmpC β-lactamase (setting [7]). Besides, the “MIC … K. pneumoniae KPC-2” value in [1] stood at 0.06 µg/mL. Besides, the “MIC of example compound, E. cloacae P99+” value in [2] is 1 µg/mL. Besides, the “MIC … P. aeruginosa VIM-2” value in assay [4] was more than 8 µg/mL. In assay [5], the “MIC of example compound, E. coli SHV-5” value was determined as 2 µg/mL. In addition, in [6], the “MIC … K. pneumoniae CTX-M-15” value came out at 2 µg/mL.
As to `CCC(=O)C(=O)N[C@@H](Cc1cccc(C(=O)O)c1O)B(O)O` [Example 56, 3-[2(R)-(2-oxo-butyrylamino)-2-borono-ethyl]-2-hydroxy-benzoic acid], the IC50 is 31 nM on OXA-23 β-lactamase; more than 1000 nM in assay [3]; 24 nM against KPC-2 β-lactamase; 195 nM at SHV-5 β-lactamase; 11 nM at CTX-M15 β-lactamase; 2 nM at p99 AmpC β-lactamase (setting [7]). Moreover, the “MIC … K. pneumoniae KPC-2” value in assay [1] was found to be 0.25 µg/mL. Moreover, in [2], the “MIC of example compound, E. cloacae P99+” value amounted to 2 µg/mL. In addition, in assay [4], the “MIC … P. aeruginosa VIM-2” value is more than 8 µg/mL. In addition, the “MIC of example compound, E. coli SHV-5” value in [5] was more than 8 µg/mL. Further, the “MIC … K. pneumoniae CTX-M-15” value in assay [6] turned out to be 4 µg/mL.
As to “(1R)-[3-{(2-hydroxy-ethylamino)-methyl}-benzoylamino]-(3-carboxy-2-hydroxy)benzyl-methylboronic acid formate [Example 43]”, the half-maximal inhibitory concentration (IC50) on OXA-23 β-lactamase turned out to be 38 nM; in [3], 184 nM; on KPC-2 β-lactamase (setting [8]), 70 nM; at SHV-5 β-lactamase (setting [9]), 4 nM; at CTX-M15 β-lactamase (setting [10]), 12 nM; on p99 AmpC β-lactamase (setting [7]), 9 nM. Also, the “MIC … K. pneumoniae KPC-2” value in assay [1] is less than 0.015 µg/mL. The “MIC of example compound, E. cloacae P99+” value in assay [2] turned out to be 0.5 µg/mL. Moreover, the “MIC … P. aeruginosa VIM-2” value in assay [4] was more than 8 µg/mL. Moreover, in assay [5], the “MIC of example compound, E. coli SHV-5” value was 2 µg/mL. Besides, the “MIC … K. pneumoniae CTX-M-15” value in [6] was 0.5 µg/mL.
“(2R)-3-[(2-[(2-chloro-pyridin-4-yl-acetyl)-amino]-2-borono-ethyl]-2-hydroxy-benzoic acid hydrochloride [Example 47]”: the half-inhibitory concentration (IC50) on OXA-23 β-lactamase is 132 nM; in assay [3], more than 1000 nM; on KPC-2 β-lactamase (setting [8]), 2 nM; at SHV-5 β-lactamase (setting [9]) it was 1 nM; at CTX-M15 β-lactamase (setting [10]), 2 nM; on p99 AmpC β-lactamase (setting [7]), 5 nM. In [1], the “MIC … K. pneumoniae KPC-2” value was 0.03 µg/mL. Moreover, the “MIC of example compound, E. cloacae P99+” value in [2] was 1 µg/mL. Further, in assay [4], the “MIC … P. aeruginosa VIM-2” value is more than 8 µg/mL. Further, the “MIC of example compound, E. coli SHV-5” value in assay [5] stood at 0.25 µg/mL. Moreover, the “MIC … K. pneumoniae CTX-M-15” value in assay [6] came to 0.25 µg/mL.
